In patent US11992009B2, “Pesticide-containing soil disinfestation material without use of fumigant” (priority 2020, dated 2024):

How the values were obtained:
[1] = Lab soil pesticide release testing; format: physicochemical; settings: for Pesticide content of fumigant-free soil disinfestation materials after set time on Soil: HPLC, LoQ 0.25 g/ha
Procedure: 200 g of dry soil is placed in rectangular thin layer chromatography chamber of 27×7×26 cm with lid and 20 g water is added to the soil. A 58 cm^2 of a polymer composite material sample is placed on the humid soil and weight down by a glass plate with a contact pressure of […] to simulate similar contact conditions with the soil as in the field after application of the polymer composite material like a plastic mulch film. […]
After the set contact time with the soil the film sample is removed, moisture is dabbed off, loose dirt is brushed off and then the sample is dried at 60 C in an oven for 10 min. After drying the sample is cut into 100 small squares (each about 7.5 by 7.5 mm), placed in a small glass flask with 5 gram of Methanol and a magnetic stir bar. The flask is capped, stirred for 4 hours and the methanolic solution is then analyzed by HPLC. The difference between the initial and remaining amount of pesticide is released to the soil during the set time. The lowest concentration of analyte that can be determined with an acceptable repeatability and trueness by the method is 0.025 mg/m^2=0.25 g/ha Limit of quantitation (LoQ).

[2] = cited from earlier work
[3] = Example 3 material, 0 days (initial content)
[4] = Example 3 material, 7 days on humid soil
[5] = Example 3 material, 14 days on humid soil
[6] = Example 3 material, 21 days on humid soil
[7] = Example 4 material, 0 days (initial content)
[8] = Example 4 material, 7 days on humid soil
[9] = Example 4 material, 14 days on humid soil
[10] = Example 4 material, 21 days on humid soil
[11] = Example 1 material, 0 days (initial content)
[12] = Example 1 material, 7 days on humid soil
[13] = Example 1 material, 14 days on humid soil
[14] = Example 1 material, 21 days on humid soil
[15] = Example 2 material, 0 days (initial content)
[16] = Example 2 material, 7 days on humid soil
[17] = Example 2 material, 14 days on humid soil
[18] = Example 2 material, 21 days on humid soil
[19] = Example 5 material, 0 days (initial content)
[20] = Example 5 material, 7 days on humid soil
[21] = Example 5 material, 14 days on humid soil
[22] = Example 5 material, 21 days on humid soil

SMILES | Pesticide content of fumigant-free soil disinfestation materials after set time on Soil [1, 3] [g/ha] | Pesticide content of fumigant-free soil disinfestation materials after set time on Soil [1, 4] [g/ha] | Pesticide content of fumigant-free soil disinfestation materials after set time on Soil [1, 5] [g/ha] | Pesticide content of fumigant-free soil disinfestation materials after set time on Soil [1, 6] [g/ha] | Pesticide content of fumigant-free soil disinfestation materials after set time on Soil [1, 7] [g/ha] | Pesticide content of fumigant-free soil disinfestation materials after set time on Soil [1, 8] [g/ha] | Pesticide content of fumigant-free soil disinfestation materials after set time on Soil [1, 9] [g/ha] | Pesticide content of fumigant-free soil disinfestation materials after set time on Soil [1, 10] [g/ha] | Pesticide content of fumigant-free soil disinfestation materials after set time on Soil [1, 11] [g/ha] | Pesticide content of fumigant-free soil disinfestation materials after set time on Soil [1, 12] [g/ha] | Pesticide content of fumigant-free soil disinfestation materials after set time on Soil [1, 13] [g/ha] | Pesticide content of fumigant-free soil disinfestation materials after set time on Soil [1, 14] [g/ha] | Pesticide content of fumigant-free soil disinfestation materials after set time on Soil [1, 15] [g/ha] | Pesticide content of fumigant-free soil disinfestation materials after set time on Soil [1, 16] [g/ha] | Pesticide content of fumigant-free soil disinfestation materials after set time on Soil [1, 17] [g/ha] | Pesticide content of fumigant-free soil disinfestation materials after set time on Soil [1, 18] [g/ha] | other results
Cc1nn(-c2cc(NS(C)(=O)=O)c(Cl)cc2Cl)c(=O)n1C(F)F [Sulfentrazone] | 202 | 15 | 0 | 0 |  |  |  |  |  |  |  |  |  |  |  |  | 
CCc1cccc(C)c1N(C(=O)CCl)[C@@H](C)COC [s-metolachlor] |  |  |  |  | 800 | 5 | 0 | 0 |  |  |  |  |  |  |  |  | 
COC(=O)c1c(Cl)nn(C)c1S(=O)(=O)NC(=O)Nc1nc(OC)cc(OC)n1 [Halosulfuron-methyl] | 35 | 0 | 0 | 0 |  |  |  |  | 35 | 0 | 0 | 0 | 35 | 0 | 0 | 0 | Pesticide content of fumigant-free soil disinfestation materials after set time on Soil [1, 19]: 40 g/ha; Pesticide content of fumigant-free soil disinfestation materials after set time on Soil [1, 20]: 0 g/ha; Pesticide content of fumigant-free soil disinfestation materials after set time on Soil [1, 21]: 0 g/ha; Pesticide content of fumigant-free soil disinfestation materials after set time on Soil [1, 22]: 0 g/ha
O=C(NCCc1ncc(C(F)(F)F)cc1Cl)c1ccccc1C(F)(F)F [Fluopyram] | 91 | 0 | 0 | 0 |  |  |  |  |  |  |  |  |  |  |  |  | Pesticide content of fumigant-free soil disinfestation materials after set time on Soil [1, 19]: 350 g/ha; Pesticide content of fumigant-free soil disinfestation materials after set time on Soil [1, 20]: 14 g/ha; Pesticide content of fumigant-free soil disinfestation materials after set time on Soil [1, 21]: 0 g/ha; Pesticide content of fumigant-free soil disinfestation materials after set time on Soil [1, 22]: 0 g/ha
N#Cc1c[nH]cc1-c1cccc2c1OC(F)(F)O2 [Fludioxonil] |  |  |  |  |  |  |  |  | 244 | 57 | 23 | 0 | 244 | 53 | 17 | 0 | Release from coated film in lab release test (FIG. 3) ([1]; at 7, 14 and 21 days, before planting): complete release; Water solubility [2]: hardly water soluble
CO/C=C(/C(=O)OC)c1ccccc1Oc1cc(Oc2ccccc2C#N)ncn1 [Azoxystrobin] |  |  |  |  |  |  |  |  | 96 | 12 | 0 | 0 | 96 | 9 | 0 | 0 | Pesticide content of fumigant-free soil disinfestation materials after set time on Soil [1, 19]: 10 g/ha; Pesticide content of fumigant-free soil disinfestation materials after set time on Soil [1, 20]: 0 g/ha; Pesticide content of fumigant-free soil disinfestation materials after set time on Soil [1, 21]: 0 g/ha; Pesticide content of fumigant-free soil disinfestation materials after set time on Soil [1, 22]: 0 g/ha
CC(C)(C)C(O)(CCc1ccc(Cl)cc1)Cn1cncn1 (stereo not shown) [Tebuconazole] | 954 | 125 | 45 | 8 |  |  |  |  |  |  |  |  |  |  |  |  | 
COCC(=O)N(c1c(C)cccc1C)C(C)C(=O)OC (stereo not shown) [Metalaxyl] |  |  |  |  |  |  |  |  | 936 | 12 | 1 | 0 | 936 | 15 | 0 | 0 | 
COCC(=O)N(c1c(C)cccc1C)[C@H](C)C(=O)OC [Mefenoxam] |  |  |  |  | 281 | 19 | 0 | 0 |  |  |  |  |  |  |  |  | 
CSc1nnc(C(C)(C)C)c(=O)n1N [Metribuzin] |  |  |  |  | 375 | 0 | 0 | 0 |  |  |  |  |  |  |  |  | 
O=S(=O)(CCC(F)=C(F)F)c1ncc(Cl)s1 [Fluensulfone] |  |  |  |  | 2807 | 0 | 0 | 0 |  |  |  |  |  |  |  |  | 
CNC(=O)O/N=C(\SC)C(=O)N(C)C [Oxamyl] |  |  |  |  |  |  |  |  | 1800 | 0 | 0 | 0 | 1800 | 0 | 0 | 0 | 
CON=C(C(=O)OC)c1ccccc1CON=C(C)c1cccc(C(F)(F)F)c1 [Trifloxystrobin] | 238 | 65 | 35 | 3 |  |  |  |  |  |  |  |  |  |  |  |  | 
O=C(NCc1ncc(C(F)(F)F)cc1Cl)c1c(Cl)cccc1Cl [Fluopicolide] |  |  |  |  | 450 | 60 | 30 | 15 |  |  |  |  |  |  |  |  | 
